From patent publication US12599672B2, “KRAS proteolysis targeting chimeras” (PAQ Therapeutics Inc., priority 2023, dated 2026)

Key:
Assay type in all cases: cell-based
KRAS G12D = target: T1, KRAS G12D (Homo sapiens, UniProt P01116, G12D); test: KRAS G12D HiBit assay; conditions: AsPc-1-KRAS (G12D)-HiBit-KI cell, compound treatment for 24 hours; for DC50: absolute DC50
T1 construct: AsPc-1-KRAS (G12D)-HiBit-KI cell (Pharmaron); host or cells: AsPc-1-KRAS (G12D)-HiBit-KI cells (HiBiT knock-in at the endogenous KRAS locus)
In short: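 Cells were treated for 24 h with compounds in a 3-fold, 10-point dilution series from a 0.3 mM DMSO stock, then equilibrated 15 min at room temperature. KRAS G12D HiBiT levels were read by luminescence after lytic Nano-Glo HiBiT reagent with LgBiT; inhibition calculated relative to 0.1% DMSO high control.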

KRAS G12V = target: T2, KRAS G12V (Homo sapiens, UniProt P01116, G12V); test: KRAS G12V HiBit assay; conditions: SW620-KRAS (G12V)-HiBit-KI cells, compound treatment for 24 hours, class symbols
T2 construct: SW620-KRAS (G12V)-HiBit-KI cell (Pharmaron); host or cells: SW620-KRAS (G12V)-HiBit-KI cells (HiBiT knock-in at the endogenous KRAS locus)
In short: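 HiBiT-tagged KRAS G12V cells treated 24 h with compound in a 3-fold, 10-point series (0.3 mM DMSO stock); lytic HiBiT reagent with LgBiT added after 15 min room-temperature equilibration. Degradation calculated against 0.1% DMSO high control.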

KRAS = target: T3, KRAS (Homo sapiens, UniProt P01116); test: KRASamp MSD assay; conditions: KE39 (KRAS amplified) cells, treated with test compounds for 24 hr, MSD readout of KRAS degradation
T3 construct: endogenous in cells; host or cells: KE39 (KRAS amplified) cells
In short: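 KRAS-amplified KE39 cells treated with compound for 24 hr, then lysed in RIPA buffer with protease/phosphatase inhibitors. KRAS protein measured by MSD sandwich immunoassay against a recombinant WT KRAS standard curve; DC50 derived from curve fitting of degradation.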

[1] = numeric bounds given in place of class symbols

T3 sequence (P01116 1-188 isoform P01116-2): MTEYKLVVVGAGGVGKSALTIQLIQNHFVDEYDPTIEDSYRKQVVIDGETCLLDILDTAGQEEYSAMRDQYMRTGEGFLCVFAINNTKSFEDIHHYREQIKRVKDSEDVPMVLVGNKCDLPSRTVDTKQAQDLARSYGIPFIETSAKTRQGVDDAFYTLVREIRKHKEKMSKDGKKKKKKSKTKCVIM
T1 sequence (P01116 1-188 isoform P01116-2 G12D): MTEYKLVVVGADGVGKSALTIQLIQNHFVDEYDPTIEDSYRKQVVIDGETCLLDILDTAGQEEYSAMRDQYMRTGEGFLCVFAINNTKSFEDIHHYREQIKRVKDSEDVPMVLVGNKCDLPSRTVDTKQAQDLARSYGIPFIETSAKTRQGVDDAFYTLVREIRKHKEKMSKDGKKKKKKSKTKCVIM
T2 sequence (P01116 1-188 isoform P01116-2 G12V): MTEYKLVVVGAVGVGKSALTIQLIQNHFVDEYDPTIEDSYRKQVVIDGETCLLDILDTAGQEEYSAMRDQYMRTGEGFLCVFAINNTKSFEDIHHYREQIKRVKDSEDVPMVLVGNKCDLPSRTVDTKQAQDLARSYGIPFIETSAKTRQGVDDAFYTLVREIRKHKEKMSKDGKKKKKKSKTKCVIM

Structure (SMILES) | DC50 (KRAS G12D; [1]) | DC50 (KRAS G12V) | DC50 (KRAS) | DC50 (KRAS G12D; class symbols) | Dmax (KRAS G12D; class symbols) | Average Dmax (KRAS G12D; class symbols)
CCc1c(F)ccc2cc(O)cc(-c3ncc4c(N5CCN6CCCC6C5)nc(OC[C@@]56CCCN5[C@H](COC(=O)N5CCC7(CC5)CC(N5CCC(c8ccc9c(c8)n(C)c(=O)n9C8CCC(=O)NC8=O)CC5)C7)CC6)nc4c3F)c12 (stereo partly drawn) [Compound 345, ((3S,7aS)-7a-(((7-(8-ethyl-7-fluoro-3-hydroxynaphthalen-1-yl)-8-fluoro-4-(hexahydropyrrolo[1,2-a]pyrazin-2(1H)-yl)pyrido[4,3-d]pyrimidin-2-yl)oxy)methyl)hexahydro-1H-pyrrolizin-3-yl)methyl 2-(4-(1-(2,6-dioxopiperidin-3-yl)-3-methyl-2-oxo-2,3-dihydro-1H-benzo[d]imidazol-5-yl)piperidin-1-yl)-7-azaspiro[3.5]nonane-7-carboxylate] | > 100 nM | > 100 nM | 1 to 10 nM |  |  | 
CCc1c(F)ccc2cc(O)cc(-c3ncc4c(N5CCC[C@@](C)(O)C5)nc(OC[C@@]56CCCN5[C@@H](COC(=O)N5CCC(CCCOc7ccc8c(c7)n(C)c(=O)n8C7CCC(=O)NC7=O)CC5)CC6)nc4c3F)c12 (stereo partly drawn) [Compound 316, ((3R,7aS)-7a-(((7-(8-ethyl-7-fluoro-3-hydroxynaphthalen-1-yl)-8-fluoro-4-((R)-3-hydroxy-3-methylpiperidin-1-yl)pyrido[4,3-d]pyrimidin-2-yl)oxy)methyl)hexahydro-1H-pyrrolizin-3-yl)methyl 4-(3-((1-(2,6-dioxopiperidin-3-yl)-3-methyl-2-oxo-2,3-dihydro-1H-benzo[d]imidazol-5-yl)oxy)propyl)piperidine-1-carboxylate] | > 100 nM | > 100 nM | ≥ 10 nM |  |  | 
Cn1c(=O)n(C2CCC(=O)NC2=O)c2cc(F)c(C3CCN(CC4CCN(C(=O)OC[C@@H]5CC[C@]6(COc7nc(N8CCC[C@@](C)(O)C8)c8cnc(-c9cc(O)cc%10ccc(F)cc9%10)c(F)c8n7)CCCN56)CC4)CC3)cc21 (stereo partly drawn) [Compound 447, ((3S,7aS)-7a-(((8-fluoro-7-(7-fluoro-3-hydroxynaphthalen-1-yl)-4-((R)-3-hydroxy-3-methylpiperidin-1-yl)pyrido[4,3-d]pyrimidin-2-yl)oxy)methyl)hexahydro-1H-pyrrolizin-3-yl)methyl 4-((4-(1-(2,6-dioxopiperidin-3-yl)-6-fluoro-3-methyl-2-oxo-2,3-dihydro-1H-benzo[d]imidazol-5-yl)piperidin-1-yl)methyl)piperidine-1-carboxylate] |  | < 10 nM | < 1 nM | < 100 nM |  | 
C#Cc1c(F)ccc2cc(O)cc(-c3ncc4c(N5CCC[C@@](C)(O)C5)nc(OC[C@@]56CCCN5[C@H](COC(=O)N5CCC(OCC#Cc7cccc8c7n(C)c(=O)n8C7CCC(=O)NC7=O)CC5)CC6)nc4c3F)c12 (stereo partly drawn) [Compound 372, ((3S,7aS)-7a-(((7-(8-ethynyl-7-fluoro-3-hydroxynaphthalen-1-yl)-8-fluoro-4-((R)-3-hydroxy-3-methylpiperidin-1-yl)pyrido[4,3-d]pyrimidin-2-yl)oxy)methyl)hexahydro-1H-pyrrolizin-3-yl)methyl 4-((3-(1-(2,6-dioxopiperidin-3-yl)-3-methyl-2-oxo-2,3-dihydro-1H-benzo[d]imidazol-4-yl)prop-2-yn-1-yl)oxy)piperidine-1-carboxylate] |  | 10 to 100 nM | 1 to 10 nM | < 100 nM |  | 
CCc1c(F)ccc2cc(O)cc(-c3ncc4c(N5CCC[C@@](C)(O)C5)nc(OC[C@@]56CCCN5[C@@H](COC(=O)N5CCC(CCOc7ccc8c(c7)n(C)c(=O)n8C7CCC(=O)NC7=O)CC5)CC6)nc4c3F)c12 (stereo partly drawn) [Compound 315, ((3R,7aS)-7a-(((7-(8-ethyl-7-fluoro-3-hydroxynaphthalen-1-yl)-8-fluoro-4-((R)-3-hydroxy-3-methylpiperidin-1-yl)pyrido[4,3-d]pyrimidin-2-yl)oxy)methyl)hexahydro-1H-pyrrolizin-3-yl)methyl 4-(2-((1-(2,6-dioxopiperidin-3-yl)-3-methyl-2-oxo-2,3-dihydro-1H-benzo[d]imidazol-5-yl)oxy)ethyl)piperidine-1-carboxylate] | > 100 nM | > 100 nM | ≥ 10 nM |  |  | 
CCc1c(F)ccc2cc(O)cc(-c3ncc4c(N5CCCOCC5)nc(OC[C@@]56CCCN5[C@H](COC(=O)N5CCC(CN7CCC(c8ccc9c(c8)n(C)c(=O)n9C8CCC(=O)NC8=O)CC7)CC5)CC6)nc4c3F)c12 (stereo partly drawn) [Compound 422, ((3S,7aS)-7a-(((7-(8-ethyl-7-fluoro-3-hydroxynaphthalen-1-yl)-8-fluoro-4-(1,4-oxazepan-4-yl)pyrido[4,3-d]pyrimidin-2-yl)oxy)methyl)hexahydro-1H-pyrrolizin-3-yl)methyl 4-((4-(1-(2,6-dioxopiperidin-3-yl)-3-methyl-2-oxo-2,3-dihydro-1H-benzo[d]imidazol-5-yl)piperidin-1-yl)methyl)piperidine-1-carboxylate] |  | < 10 nM | < 1 nM | < 100 nM |  | 
C#Cc1c(F)ccc2cc(O)cc(-c3ncc4c(N5CCC[C@@](C)(O)C5)nc(OCC5(CN6CCN(CC7CCN(c8ccc9c(c8)n(C)c(=O)n9C8CCC(=O)NC8=O)CC7)CC6)CC5)nc4c3F)c12 (stereo partly drawn) [Compound 14, 3-[5-[4-[[4-[[1-[[7-(8-Ethynyl-7-fluoro-3-hydroxy-1-naphthyl)-8-fluoro-4-[(3R)-3-hydroxy-3-methyl-1-piperidyl]pyrido[4,3-d]pyrimidin-2-yl]oxymethyl]cyclopropyl]methyl]piperazin-1-yl]methyl]-1-piperidyl]-3-methyl-2-oxo-benzimidazol-1-yl]piperidine-2,6-dione] |  | < 10 nM | < 1 nM | < 100 nM | > 50% | 
C#Cc1c(F)ccc2cc(O)cc(-c3ncc4c(N5CCC[C@@](C)(O)C5)nc(OC[C@@]56CCCN5[C@H](COC(=O)N5CCCC7(CN(CC8CCN(c9ccc%10c(c9)n(C)c(=O)n%10C9CCC(=O)NC9=O)CC8)C7)C5)CC6)nc4c3F)c12 (stereo partly drawn) [Compound 329, ((3S,7aS)-7a-(((7-(8-ethynyl-7-fluoro-3-hydroxynaphthalen-1-yl)-8-fluoro-4-((R)-3-hydroxy-3-methylpiperidin-1-yl)pyrido[4,3-d]pyrimidin-2-yl)oxy)methyl)hexahydro-1H-pyrrolizin-3-yl)methyl 2-((1-(1-(2,6-dioxopiperidin-3-yl)-3-methyl-2-oxo-2,3-dihydro-1H-benzo[d]imidazol-5-yl)piperidin-4-yl)methyl)-2,6-diazaspiro[3.5]nonane-6-carboxylate] | > 100 nM | > 100 nM | ≥ 10 nM |  |  | 
CCc1c(F)ccc2cc(O)cc(-c3ncc4c(N5CCC[C@@](C)(O)C5)nc(OC[C@@]56CCCN5[C@H](COC(=O)N5CCC(CN7CCC(c8ccc9c(c8)n(C)c(=O)n9C8CCC(=O)NC8=O)CC7)CC5)CC6)nc4c3F)c12 (stereo partly drawn) [Compound 1, [(3S,8S)-8-[[7-(8-Ethyl-7-fluoro-3-hydroxy-1-naphthyl)-8-fluoro-4-[(3R)-3-hydroxy-3-methyl-1-piperidyl]pyrido[4,3-d]pyrimidin-2-yl]oxymethyl]-1,2,3,5,6,7-hexahydropyrrolizin-3-yl]methyl 4-[[4-[1-(2,6-dioxo-3-piperidyl)-3-methyl-2-oxo-benzimidazol-5-yl]-1-piperidyl]methyl]piperidine-1-carboxylate] |  | < 10 nM | < 1 nM | < 100 nM |  | A (Dmax greater than 50%)
C#Cc1c(F)ccc2cc(O)cc(-c3ncc4c(N5CCC[C@@](C)(O)C5)nc(OC[C@@]56CCCN5[C@H](COC(=O)N5CCC7(CC5)CC(CN5CCC(c8ccc9c(c8)n(C)c(=O)n9C8CCC(=O)NC8=O)CC5)C7)CC6)nc4c3F)c12 (stereo partly drawn) [Compound 323, ((3S,7aS)-7a-(((7-(8-ethynyl-7-fluoro-3-hydroxynaphthalen-1-yl)-8-fluoro-4-((R)-3-hydroxy-3-methylpiperidin-1-yl)pyrido[4,3-d]pyrimidin-2-yl)oxy)methyl)hexahydro-1H-pyrrolizin-3-yl)methyl 2-((4-(1-(2,6-dioxopiperidin-3-yl)-3-methyl-2-oxo-2,3-dihydro-1H-benzo[d]imidazol-5-yl)piperidin-1-yl)methyl)-7-azaspiro[3.5]nonane-7-carboxylate] |  | < 10 nM | 1 to 10 nM | < 100 nM |  | 
CCc1c(F)ccc2cc(O)cc(-c3ncc4c(N5CCC[C@@](C)(O)C5)nc(OC[C@@]56CCCN5[C@H](CN5CCC(CN7CCC(Cc8ccc9c(c8)n(C)c(=O)n9C8CCC(=O)NC8=O)CC7)CC5)CC6)nc4c3F)c12 (stereo partly drawn) [Compound 436, 3-(5-((1-((1-(((3S,7aS)-7a-(((7-(8-ethyl-7-fluoro-3-hydroxynaphthalen-1-yl)-8-fluoro-4-((R)-3-hydroxy-3-methylpiperidin-1-yl)pyrido[4,3-d]pyrimidin-2-yl)oxy)methyl)hexahydro-1H-pyrrolizin-3-yl)methyl)piperidin-4-yl)methyl)piperidin-4-yl)methyl)-3-methyl-2-oxo-2,3-dihydro-1H-benzo[d]imidazol-1-yl)piperidine-2,6-dione] |  | 10 to 100 nM | 1 to 10 nM | < 100 nM |  | 
